Measurements published in patent publication US10399932B2, “Inhibitors of indoleamine-2,3-dioxygenase for the treatment of cancer” (BRISTOL-MYERS SQUIBB COMPANY, priority 2015, dated 2019).
pIC50: −log10 of the molar value.

What follows are compounds tested against human IDO1 (Homo sapiens, UniProt P14902) (assay: Assessment of human IDO-1 inhibitory activity in Hela cells (Interferon-gamma activated, Ehrlich reagent, absorbance at 490 nm)). Conditions: 18 hours.
Format: cell-based
Design: endogenous in cells; host or cells: HeLa cells stimulated with interferon-gamma
Procedure, shortened: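 HeLa cells were preincubated with compound for 1 h at 37 °C, then stimulated with human IFN-γ (10 ng/ml final) or murine IFN-γ (5 ng/ml final) for 18 h. Kynurenine was read after TCA (3% final, 50 °C for 30 min) and Ehrlich reagent at A490. For IC50, unstimulated wells were set as 100% inhibition and IFN-γ alone as 0%.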

human IDO1, sequence (P14902 whole entry): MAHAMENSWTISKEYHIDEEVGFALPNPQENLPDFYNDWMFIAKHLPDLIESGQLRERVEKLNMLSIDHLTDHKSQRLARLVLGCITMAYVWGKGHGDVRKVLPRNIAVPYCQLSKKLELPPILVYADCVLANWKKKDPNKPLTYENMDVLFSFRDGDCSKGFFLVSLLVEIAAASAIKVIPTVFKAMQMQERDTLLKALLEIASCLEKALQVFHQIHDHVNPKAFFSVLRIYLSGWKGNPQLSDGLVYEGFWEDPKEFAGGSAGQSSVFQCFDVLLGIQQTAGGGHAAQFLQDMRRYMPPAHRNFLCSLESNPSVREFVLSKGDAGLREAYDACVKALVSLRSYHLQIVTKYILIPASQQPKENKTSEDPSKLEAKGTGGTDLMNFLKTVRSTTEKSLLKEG

Compound | pIC50
CCC(CC(=O)O)c1ccc(N(CC)C2CCOC2)c(NC(=O)Nc2ccc(Cl)cc2F)c1 (single isomer, unassigned) [948 D2] | > 7.30
CCC1COCCN1c1ccc([C@@H](COC)CC(=O)O)cc1Nc1cnc(OC)nc1 (single isomer, unassigned) [Example 1298] | < 7.30
CCC(CC(=O)O)c1ccc(N2CCC(C)CC2)c(NC(=O)Nc2ccc(C)cc2)c1 (single isomer, unassigned) [Example 46 Enantiomer 2, 3-(4-(4-Methylpiperidin-1-yl)-3-(3-(p-tolyl)ureido)phenyl) pentanoic acid] | < 7.30
CC(CC(=O)O)c1ccc(N2C[C@@H](C)O[C@@H](C)C2)c(NC(=O)Nc2ccc(C#N)cc2)c1 (single isomer, unassigned) [Example 752] | < 7.30
(S)-3-(4-(ethyl(tetrahydro-2H-pyran-4-yl)amino)-3-((2-(tetrahydro-2H-pyran-4-yl)pyrimidin-5-yl)amino)phenyl)-4-methoxybutanoic acid [Example 366] | < 7.30
CCC1COCCN1c1ccc([C@@H](COC)CC(=O)O)cc1Nc1ccc(C#N)cn1 (single isomer, unassigned) [Example 1297] | < 7.30
CCC1COCCN1c1ccc([C@H](COC)CC(=O)O)cc1Nc1cnc(OC)nc1 (single isomer, unassigned) [Example 1306] | < 7.30
CCOc1ncc(Nc2cc(C(CC)CC(=O)O)ccc2N2CCN(C(=O)OC)CC2)cn1 (single isomer, unassigned) [Example 670, 3-(3-((2-Ethoxypyrimidin-5-yl)amino)-4-(4-(methoxycarbonyl)piperazin-1-yl)phenyl)pentanoic acid] | < 7.30

The next lines start with the values.

pIC50 | Compound
> 7.30 | CCN(c1ccc(C(CC(=O)O)C2CC2)cc1Nc1ccc(OC)nc1)C1CCS(=O)(=O)CC1 (single isomer, unassigned) [Example 346, 3-cyclopropyl-3-(4-((1,1-dioxidotetrahydro-2H-thiopyran-4-yl)(ethyl)amino)-3-((6-methoxypyridin-3-yl)amino)phenyl)propanoic acid]
> 7.30 | CCOc1ncc(Nc2cc(C(CC)CC(=O)O)ccc2N(C)C2CCOCC2)cn1 (single isomer, unassigned) [Example 872, 3-(3-((2-ethoxypyrimidin-5-yl)amino)-4-(methyl (tetrahydro-2H-pyran-4-yl)amino)phenyl)pentanoic acid]
> 8.30 | CCC(CC(=O)O)c1ccc(N(C)C2CCOCC2)c(Nc2ccc(Cl)cc2)c1 (single isomer, unassigned) [Example 937, 3-(3-((4-chlorophenyl)amino)-4-(methyl(tetrahydro-2H-pyran-4-yl)amino)phenyl) pentanoic acid]
> 8.30 | CCC(CC(=O)O)c1cc(F)c(N(CC)C2CCOCC2)c(Nc2ccc(C#N)cn2)c1 (single isomer, unassigned) [Example 143, 3-(3-((5-cyanopyridin-2-yl)amino)-4-(ethyl (tetrahydro-2H-pyran-4-yl)amino)-5-fluorophenyl)pentanoic acid]
